# Data: patent publication US9193954B2, “Methods and compositions for mesenchymal stem cell proliferation” (priority 2011, dated 2015)
# How the values were obtained:
# hMSCs [1] = test: alamarBlue metabolic assay of hMSC proliferation after BIO dosing (Example 1); assay type: cell-based, human; conditions: for effect on hMSC population (alamarBlue): 24 hr dosing
# Method: FIG. 1. Proliferative effect of BIO after 24 hr dosing; 0 μM (-□-, grey squares), 2 μM (-∘-, open circles), 5 μM (-▴-, black triangles), 10 μM (-X-, black crosses). Proliferation was assessed using alamarBlue metabolic assay. Error bars shown are standard error (n=3).
# The small molecule GSK3β inhibitor 6-bromoindirubin-3′-oxime was synthesized as previously described (Polychronopoulos et al., J Med Chem. 2004; 47(4):935-46). It is also commercially available (such as from Sigma). The molecule was solubilized in dimethyl sulfoxide (DMSO) to specified concentrations. hMSCs were plated at a density of 5,000 cell/cm2 in 24-well tissue culture plates. Cells were allowed to become adherent for a period of 24 hrs before BIO was introduced. 10 μL of BIO in DMSO were added to 1 mL of culture media so that the final concentrations of 2, 5, and 10 μM were achieved. […] Culture continued over 33 days with media being replaced every three days. An alamarBlue cell viability assay was performed on days: −1 (before BIO treatment), 0, 4, 8, 12, 14, 17, 23, 26, 28, and 33. Cell population was normalized to alamarBlue readings after the initial period of 24 hr BIO dosing.
# active nuclear β-catenin = test: TOPFlash/FOPFlash reporter assay for active nuclear β-catenin in C3H10T1/2; assay type: cell-based, mouse; conditions: for increase in normalized TOPFlash signal compared to untreated controls: after 24 hr treatment, C3H10T1/2
# Description: FIG. 3 Schematic representation of 3 hr C3H10T1/2 transfection with TOP/FOPFlash DNA plasmid followed by 24 hr exposure to BIO-containing media and subsequent analysis for active nuclear β-catenin over 5 days (A). Active nuclear β-catenin concentrations (TOPFlash) show a BIO-mediated dose-dependent increase immediately after BIO treatment as compared to control plasmid (FOPFlash) (B). Increased active nuclearβ-catenin concentrations persists for 3 days after BIO-treatment before returning to basal levels (C).
# The β-catenin TOPFlash reporter plasmid and the FOPFlash mutant control (Addgene Plasmid #12456, and Addgene Plasmid #12457 were obtained in the form of DH5alpha bacterial stabs. Bacteria were streaked onto ampicillin-containing agar plates and grown overnight at 37° C. A single colony was selected, grown in 50 ml Luria-Bertani (LB) broth with 100 μg/ml ampicillin (Gibco) to select for ampicillin resistant colonies, and cultured at 37° C. under constant agitation for 24 hrs. Bacteria were centrifuged to form a pellet and plasmid DNA was purified using a Plasmid Midi Kit (Qiagen). Plasmid DNA was digested using EcoRI and PvuI restriction endonucleases (New England Biolabs) and fragments were separated on a 0.8% agarose gel. Molecular weights were verified using a standard DNA ladder (HyperLadder I, BioLine).
# C3H10T1/2 mouse embryonic fibroblasts were seeded in multiple 48-well plates and treated with BIO containing growth media for 24 hrs to analyze the effects of β-catenin activity over time. […]
# Luciferase activity was measured prior to BIO treatment (day 0), as well as on days 1, 2, 3, 4, and 5 after the 24 hr BIO treatment period. […] To each 96-well 25 μl of Luciferase Assay Reagent (Promega, Madison, Wis.) was added and total luminescence was measure immediately using a BioTek Synergy Mx plate-reader. Total luminescence was normalized to cellular DNA concentration using a Quant-iT PicoGreen dsDNA Assay Kit (Invitrogen) to account for well-to-well variability in cell density.
# hMSCs [2] = test: hMSC cell layer thickness by confocal microscopy; assay type: cell-based, human; conditions: for cell layer thickness: day 40
# Method: hMSC cell layer thickness was measured using the z-directional controls of a FV1000 Olympus Laser Scanning Confocal Microscope. On days 1, 14, and 40 cells, seeded on optically clear glass bottom 24-well culture plates (MatTek, Ashland, Mass.) were stained using a fluorescent LIVE/DEAD Viability/Cytotoxicity kit (Invitrogen). The focal plane of the microscope was adjusted to the cell-plate interface and set to zero. Using the z-directional controls the focal plane was raised until the live fluorescently stained cells were no longer visible at which point the cell layer thickness was recorded.
# PEG-encapsulated hMSCs = test: LIVE/DEAD confocal imaging of PEG-encapsulated BIO-treated hMSC cultures; assay type: cell-based, human; conditions: no detectable dead cells
# Description: FIG. 7 Schematic representation of 18 day PEG-encapsulated hMSC culture after 24 hr exposure to BIO-containing media (A). Cell DNA concentration was quantified on days 0, 1, 5, 12, and 18 and shown to undergo a dose-dependent, BIO-mediated increase in proliferation (B), as previously shown in two-dimensional cultures. Representative LIVE/DEAD confocal images of PEG-encapsulated BIO-treated hMSC cultures (C).
# Encapsulated hMSC viability, BIO treatment, and assessment of gene expression was performed as described in Section 2.3 with exception of cell lysate collection. For assessment of gene expression hMSC-PEG constructs were homogenized in lysis buffer and centrifuged to pellet polymerized PEG. The supernatant was then collected for analysis.
structure (smiles),measurement,setting,value
"O=C1Nc2cc(Br)ccc2/C1=C1/Nc2ccccc2/C1=N\O [BIO, 6-bromoindirubin-3′-oxime]",effect on hMSC population (alamarBlue),hMSCs [1]; BIO 2-5 μM,dose dependent proliferative response
same,effect on hMSC population (alamarBlue),hMSCs [1]; BIO concentrations below 2 μM,did not have a noticeable effect
same,effect of continual dosing on hMSCs,"hMSCs [1]; continual dosing with BIO, parallel study (data not shown)",complete cell death by day 5
same,increase in normalized TOPFlash signal compared to untreated controls,active nuclear β-catenin; 2 μM BIO,71 fold
same,increase in normalized TOPFlash signal compared to untreated controls,active nuclear β-catenin; 5 μM BIO,106 fold
same,"persistence of elevated TOPFlash signaling after BIO was removed, before returning to basal levels","active nuclear β-catenin; C3H10T1/2, after 24 hr BIO treatment",three
same,cell layer thickness,hMSCs [2]; 2 μM BIO,23.5 μm
same,cell layer thickness,hMSCs [2]; 5 μM BIO,24.0 μm
same,cell layer thickness versus untreated control,hMSCs [2]; day 0 and 14,no statistically significant differences
same,live cells (LIVE/DEAD imaging),PEG-encapsulated hMSCs,~100%
